From US11007237B2, “Agent for suppressing carbohydrate breakdown and absorption” (KOHAKU BIO TECHNOLOGY CO., LTD., priority 2017, dated 2021)

How the values were obtained:
[1] = molecular target: T1, sucrase (Homo sapiens, UniProt P14410); experiment: Suppression test for sucrase activity in Caco-2 cells; type: cell-based
T1 construct: Cells were collected with a lysis buffer (0.1 M phosphate buffer (pH6.8), 0.5% TritonX-100); endogenous in cells; host or cells: Caco-2 cells (Triton X-100 lysate supernatant, crude enzyme)
Method: (§1) The extract obtained can be examined for action to suppress α-glucosidase activity, for example, by the following method. The extract is added to human colon cancer-derived cells (hereinafter referred to as Caco-2 cells) and the cells are cultured. The cultured cells are collected. With a crude enzyme solution thereof, sucrose or maltose serving as substrate is allowed to react. The amount of glucose generated is quantified by an enzyme method using glucose oxidase. An action to inhibit glucose uptake can be examined by the following method. To Caco-2 cells differentiated into the intestinal epithelial-like, glucose and the extract were simultaneously added. The amount of glucose taken in the cells or permeated through the cells is quantified by an enzyme method using glucose oxidase.
(§2) The test herein was carried out with reference to the method of OGAWA et al. (N. Ogawa et al., the Journal of Nutrition, 130: 507-513, 2000).
To Dulbecco's modified eagle medium (DMEM)(manufactured by Thermo Fisher Scientific K.K.), 10% fetal bovine serum (hereinafter referred to as FBS)(manufactured by Thermo Fisher Scientific K.K.), a 1% antibacterial agent (Penicillin-Streptomycin-L-Glutamine) (manufactured by FUJIFILM Wako Pure Chemical Corporation) and a 1% non-essential amino acid mixture (MEM Non-Essential Amino Acids) (manufactured by Thermo Fisher Scientific K.K.) were added to prepare a culture solution (hereinafter referred to as DMEM culture medium). In the DMEM culture solution (medium), Caco-2 cells were suspended. The suspension was added in 24-well plates (manufactured by TPP) in a ratio of 1.0×10^4 cells/cm^2 to seed the cells. The cells were cultured under 95% air/5% carbon dioxide gas at 37° C. for 8 to 10 days until the cultured cells reached confluency while exchanging the medium at intervals of 2 to 3 days. After the culture supernatant was removed by suction, the amber extract (50% ethanol extract) obtained in Production Example 1 was dissolved in dimethyl sulfoxide (hereinafter referred to as DMSO) so as to obtain a final concentration of 100 and 200 μg/mL. The DMSO solutions were mixed with DMEM culture medium (DMSO final concentration: 0.25%) and each added in an amount of 500 μL. DMSO was added to DMEM culture medium so as to obtain a DMSO final concentration of 0.25% and treated. This was used as a control. […] This was used as a positive control. In addition, the suppression test for sucrase/maltase activity was carried out by using succinic acid in the corresponding amount to that contained in amber extract. More specifically, the content of succinic acid in the amber extract obtained in Production Example 1 was calculated by analysis/preparative high performance liquid chromatographic apparatus and a Fourier transform infrared spectrophotometer. […]
(§3) Cells were collected with a lysis buffer (0.1 M phosphate buffer (pH6.8), 0.5% TritonX-100), allowed to stand still on ice for 20 minutes and centrifuged (10,000×g) at 4° C. for 30 minutes, and then, the supernatant was collected. […] Thereafter, the amount of the glucose generated was quantified in accordance with an enzyme method using glucose CII test Wako (manufactured by FUJIFILM Wako Pure Chemical Corporation). The sucrase activity and maltase activity were calculated, respectively, based on the production amount of glucose.

[2] = tested on: Caco-2 cells; experiment: Suppression test for glucose uptake by the intestinal epithelial-like cells (Caco-2 cells), Transwell glucose permeation; type: cell-based, human; conditions: for Glucose permeability (%) (n = 3): apical side, 2 hours, control = 100
Method: as §1
The test herein was carried out in accordance with the method of Konishi et al. (Konishi et al., Biosci. Biotechnol. Biochem., 67(4), 856-862, 2003). In DMEM culture medium, Caco-2 cells were suspended. The suspension was added in Transwell-COL of 12 mm diameter and 0.4 μm in pore size (manufactured by Corning Incorporated) (hereinafter referred to as Transwell) in a ratio of 1.0×10^5 cells/cm^2 to seed the cells. The cells were cultured under 95% air-5% carbon dioxide gas at 37° C. for 3 weeks while exchanging the medium at intervals of 2 to 3 days.
After an intercellular electrical resistance (TER value) was confirmed to be 350 Ω·cm^2 or more by Millicell ERS-2 resistance measurement system (manufactured by Merck Millipore), the amber extract obtained in Production Example 1 was dissolved in DMSO on the apical side so as to obtain a final concentration of 0.2, 1 and 2 mg/mL, and mixed with a solution obtained by dissolving D(+)-glucose in PBS (+) in a concentration of 0.5% (hereinafter referred to as the 0.5% glucose solution) (DMSO final concentration: 1%). The resultant mixed solutions each were added in an amount of 500 μL. DMSO was added to a 0.5% glucose solution so as to obtain a DMSO final concentration of 1% and treated. This was used as a control. Phlorizin n-hydrate derived from an apple (hereinafter referred to as phlorizin) was dissolved in DMSO so as to obtain a final concentration of 1 mg/mL and mixed with the 0.5% glucose solution. The resultant DMSO solution (DMSO final concentration: 1%) was treated and used as a positive control. Further, succinic acid was subjected to a glucose permeation suppression test in the amount corresponding to that contained in the amber extract. More specifically, the content of succinic acid in the amber extract obtained in Production Example 1 was calculated by use of analysis/preparative high performance liquid chromatographic apparatus and Fourier transform infrared spectrophotometer. As a result, the content rate of succinic acid was confirmed to be 2% or less. Then, succinic acid was dissolved in DMSO so as to obtain a final concentration of 0.02, 0.05 and 0.1 mg/mL and mixed with PBS (+)(DMSO final concentration: 1%) and treated. At each basolateral side, 500 μL of PBS (+) was added. These transwells were subjected to culture carried out under 95% air −5% carbon dioxide gas at 37° C. for 2 hours. Thereafter the amount of glucose permeated on the basolateral side was quantified by use of glucose CII test Wako. The glucose permeability of the control sample was regarded as 100 and the relative changes for the samples containing a test substance were calculated. After the test, the TER value was confirmed to be 350 Ω·cm^2 or more.

[3] = tested on: maltase; experiment: Suppression test for maltase activity in Caco-2 cells; type: cell-based, human; conditions: for Maltase activity (%) (n = 3): Caco-2 cells treated 7 days, control = 100
Method: as §1, §2
To Dulbecco's modified eagle medium (DMEM)(manufactured by Thermo Fisher Scientific K.K.), 10% fetal bovine serum (hereinafter referred to as FBS)(manufactured by Thermo Fisher Scientific K.K.), a 1% antibacterial agent (Penicillin-Streptomycin-L-Glutamine) (manufactured by FUJIFILM Wako Pure Chemical Corporation) and a 1% non-essential amino acid mixture (MEM Non-Essential Amino Acids) (manufactured by Thermo Fisher Scientific K.K.) were added to prepare a culture solution (hereinafter referred to as DMEM culture medium). In the DMEM culture solution (medium), Caco-2 cells were suspended. The suspension was added in 24-well plates (manufactured by TPP) in a ratio of 1.0×10^4 cells/cm^2 to seed the cells. The cells were cultured under 95% air/5% carbon dioxide gas at 37° C. for 8 to 10 days until the cultured cells reached confluency while exchanging the medium at intervals of 2 to 3 days. […] More specifically, the content of succinic acid in the amber extract obtained in Production Example 1 was calculated by analysis/preparative high performance liquid chromatographic apparatus and a Fourier transform infrared spectrophotometer. […]
as §3

[4] = Caco-2 cells, succinic acid in the amount corresponding to that contained in the amber extract

T1 sequence (P14410 whole entry): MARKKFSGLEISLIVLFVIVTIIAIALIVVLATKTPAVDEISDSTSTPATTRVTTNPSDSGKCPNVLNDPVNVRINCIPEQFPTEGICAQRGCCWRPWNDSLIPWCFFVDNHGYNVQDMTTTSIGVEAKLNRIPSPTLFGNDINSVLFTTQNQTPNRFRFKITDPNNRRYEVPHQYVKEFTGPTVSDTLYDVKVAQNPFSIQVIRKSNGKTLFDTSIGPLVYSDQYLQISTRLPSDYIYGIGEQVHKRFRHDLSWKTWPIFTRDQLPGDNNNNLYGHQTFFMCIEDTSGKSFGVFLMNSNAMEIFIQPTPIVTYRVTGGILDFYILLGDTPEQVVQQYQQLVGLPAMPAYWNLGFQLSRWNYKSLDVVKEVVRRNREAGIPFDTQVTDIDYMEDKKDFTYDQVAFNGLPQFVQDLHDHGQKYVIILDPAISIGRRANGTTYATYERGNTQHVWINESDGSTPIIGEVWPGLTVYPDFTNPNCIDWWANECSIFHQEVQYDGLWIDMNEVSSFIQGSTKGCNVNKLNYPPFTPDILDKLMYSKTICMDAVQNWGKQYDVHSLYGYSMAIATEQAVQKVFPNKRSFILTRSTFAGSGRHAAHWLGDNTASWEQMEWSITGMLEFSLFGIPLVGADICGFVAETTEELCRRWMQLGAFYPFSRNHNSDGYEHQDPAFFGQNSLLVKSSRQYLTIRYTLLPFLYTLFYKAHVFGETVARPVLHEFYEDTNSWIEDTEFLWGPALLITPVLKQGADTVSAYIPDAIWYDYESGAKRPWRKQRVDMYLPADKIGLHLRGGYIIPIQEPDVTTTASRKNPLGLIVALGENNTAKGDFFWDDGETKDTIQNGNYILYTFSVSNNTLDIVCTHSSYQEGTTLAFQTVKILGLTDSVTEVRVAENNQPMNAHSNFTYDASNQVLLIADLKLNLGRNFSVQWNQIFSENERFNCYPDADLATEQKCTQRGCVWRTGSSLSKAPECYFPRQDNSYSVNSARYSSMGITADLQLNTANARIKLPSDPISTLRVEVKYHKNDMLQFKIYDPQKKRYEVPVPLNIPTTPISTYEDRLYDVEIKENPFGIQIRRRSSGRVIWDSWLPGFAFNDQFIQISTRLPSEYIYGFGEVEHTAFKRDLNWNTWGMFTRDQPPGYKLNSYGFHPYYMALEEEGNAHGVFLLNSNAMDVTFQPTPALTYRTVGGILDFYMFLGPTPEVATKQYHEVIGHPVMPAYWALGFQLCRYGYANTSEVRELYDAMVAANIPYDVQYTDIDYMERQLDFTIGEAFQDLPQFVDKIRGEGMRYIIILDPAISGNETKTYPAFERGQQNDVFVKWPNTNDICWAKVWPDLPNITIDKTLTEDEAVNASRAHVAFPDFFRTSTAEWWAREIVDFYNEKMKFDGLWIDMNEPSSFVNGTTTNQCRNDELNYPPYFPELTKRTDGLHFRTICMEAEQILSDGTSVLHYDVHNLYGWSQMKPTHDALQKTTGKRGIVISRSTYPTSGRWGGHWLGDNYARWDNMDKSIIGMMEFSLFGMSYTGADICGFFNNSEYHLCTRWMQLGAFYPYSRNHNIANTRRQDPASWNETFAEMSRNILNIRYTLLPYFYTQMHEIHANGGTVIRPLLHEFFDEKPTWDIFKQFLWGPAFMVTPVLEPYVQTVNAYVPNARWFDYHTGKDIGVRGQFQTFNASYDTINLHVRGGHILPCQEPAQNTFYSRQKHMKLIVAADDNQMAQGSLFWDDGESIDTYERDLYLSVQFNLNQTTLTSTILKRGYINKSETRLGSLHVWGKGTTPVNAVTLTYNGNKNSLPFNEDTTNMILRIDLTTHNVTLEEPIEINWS

C[C@H]1O[C@H](O[C@H]2[C@H](O)[C@@H](O)[C@@H](O[C@H]3[C@H](O)[C@@H](O)C(O)O[C@@H]3CO)O[C@@H]2CO)[C@H](O)[C@@H](O)[C@@H]1N[C@H]1C=C(CO)[C@@H](O)[C@H](O)[C@H]1O (some centres unmarked) [ACA, Acarbose]
activity at 100 µg/mL ([1]; 100 μg/mL, Caco-2 cells treated 7 days, control = 100, read-out: Sucrase activity (%) (n = 3)): 90.2 ± 4.1%

O=C(CCc1ccc(O)cc1)c1c(O)cc(O)cc1O[C@@H]1O[C@H](CO)[C@@H](O)[C@H](O)[C@H]1O [Phlorizin, Phlorizin n-hydrate]
Glucose permeability (%) (n = 3) ([2]; 1 mg/mL, 0.5% glucose): 27.4 ± 1.8 %

O=C(O)CCC(=O)O [Succinic acid, succinic acid]
activity at 2 µg/mL ([1]; 2 μg/mL, Caco-2 cells treated 7 days, control = 100, read-out: Sucrase activity (%) (n = 3)): 102 ± 3%
activity at 5 µg/mL ([1]; 5 μg/mL, Caco-2 cells treated 7 days, control = 100, read-out: Sucrase activity (%) (n = 3)): 95.4 ± 1.4%
activity at 25 µg/mL ([1]; 25 μg/mL, Caco-2 cells treated 7 days, control = 100, read-out: Sucrase activity (%) (n = 3)): 99.2 ± 2%
Action to suppress sucrase activity in Caco-2 cells (in words) [1, 4]: not confirmed
Maltase activity (%) (n = 3) ([3]; 2 μg/mL): 108.3 ± 1.5%
Maltase activity (%) (n = 3) ([3]; 5 μg/mL): 99.2 ± 1.3%
Maltase activity (%) (n = 3) ([3]; 25 μg/mL): 100.9 ± 2.1%
Action to suppress maltase activity in Caco-2 cells (in words) [3, 4]: not confirmed
Glucose permeability (%) (n = 3) ([2]; 0.02 mg/mL): 94.6 ± 1.6%
Glucose permeability (%) (n = 3) ([2]; 0.05 mg/mL): 92.8 ± 3.2%
Glucose permeability (%) (n = 3) ([2]; 0.1 mg/mL): 95.4 ± 2.5%
Suppression of glucose uptake / permeation in Caco-2 cells (in words) [2, 4]: not confirmed
